The values that follow are results of earlier work, collected in patent US6652882B1, “Controlled release formulation containing bupropion” (Intellipharmaceutics Corp, priority 1997, dated 2003).

The conditions of data set [1]: during storage.
For data set [2] the following is noted: oral administration; mammals such as rats and dogs.

Turning to `CC(NC(C)(C)C)C(=O)c1cccc(Cl)c1` (racemic) [Bupropion, (±)-2-(tert-butylamino)3′-chloropropiophenone], the stability on storage entry in data set [1] is “subject to hydrolytic decomposition during storage”. Further, the absolute bioavailability in data set [2] is 5% to 20.
